In patent US20230348454A1, “COMPOUNDS AS MODULATORS OF BIS-PHOSPHOGLYCERATE MUTASE FOR THE TREATMENT OF SICKLE CELL DISEASE” (Genzyme Corporation, priority 2020, published 2023):
Read-outs that look alike come from different tables or passages of the source.

How the values were obtained:
hBPGM = biological target: T1, hBPGM (Homo sapiens, UniProt P07738); assay: BPGM synthase assay; format: biochemical
T1 sequence (P07738 1-259): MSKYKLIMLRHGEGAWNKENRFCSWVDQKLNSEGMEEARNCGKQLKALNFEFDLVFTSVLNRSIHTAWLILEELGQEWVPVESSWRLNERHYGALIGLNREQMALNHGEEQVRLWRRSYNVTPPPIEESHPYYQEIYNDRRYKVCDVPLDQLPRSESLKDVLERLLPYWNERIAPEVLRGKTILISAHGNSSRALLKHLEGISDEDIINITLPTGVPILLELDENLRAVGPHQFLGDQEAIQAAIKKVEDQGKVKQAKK
Outline: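 The enzyme solution held 5 nM BPGM with 0.4 U/mL coupling GAPDH in Tris pH 7.4, 3.23 mM KH2PO4, 1 mM DTT, and compounds were pre-incubated 30 min at RT. Substrate solution (2 mM NAD, 20 μM 3PG, 800 μM GAP) reacted 60 min before a koningic acid quench. NADH fluorescence (360/460) and diaphorase/resazurin-derived resorufin (544/590) were read.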

[1] = biological target: T2, human Bisphosphoglycerate mutase (hBPGM) (Homo sapiens, UniProt P07738); assay: BPGM phosphatase assay; format: biochemical
T2 sequence (P07738 1-259): T1 sequence (P07738 1-259)
Experimental: The following materials were used in this assay: Tris buffer (50 mM Tris, 0.01% Tween 20, pH 7.4); cyclohexylammonium salt of 2,3-BPG (stock solution of 500 mM in ultapure distilled water; human Bisphosphoglycerate mutase (hBPGM; stock solution of 110 μM in Standard Buffer); 3-Phosphoglyceric acid (3-PG; stock solution of 100 mM in ultrapure distilled water); 384-Well Polystyrene Plates (Fisherbrand™, Catalog No.: 12-566-625); BIOMOL GREEN REAGENT (Enzo life sciences, BML-AK111-0250); and 1 mM DMSO stock of exemplary compounds.
A 3-PG enzyme mix solution (final enzyme concentration 62.5 nM, 3-PG concentration at 50 µM, 14.5 uL) was added to onto a 384-well clear plate. Solutions of the test compounds were then added to the plate and the DMSO content was normalized across the plate. The plate was incubated at RT for 15 min. Next, the substrate 2,3-BPG (5 μL) was added to all the wells, and the plate was sealed and incubated for 24 hr at RT. After incubation, BIOMOL green dye (40 μL) was added to all the wells, the plate was shaken to mix, and the plate was incubated at RT for 20-30 min. Absorbance measurements were recorded at 620 nm.

[2] = Table 6, read-out: huBPGM: synthase Enzyme IC50
[3] = Table 6, read-out: huBPGM: phosphatase Enzyme EC50
[4] = Table 4, read-out: hBPGM Phosphatase EC50
[5] = Table 3, read-out: hBPGM Synthase IC50

| Compound | IC50 (hBPGM; [2]) [nM] | EC50 [1, 3] [nM] | EC50 [1, 4] [nM] | IC50 (hBPGM; [5]) [nM] |
| --- | --- | --- | --- | --- |
| Cc1nc(COC(=O)N2CCN(C)CC2)sc1-c1cccc(-c2cc(F)c3nn[nH]c3c2)n1 [Example 147] | 550 | 490 | – | – |
| Cc1nc(COc2ncccn2)sc1-c1cccc(-c2ccc(C(=O)NS(=O)(=O)c3ccccc3)cc2)n1 [Example 157] | 170 | 240 | – | – |
| CCc1cnc(OCc2nc(C)c(-c3cccc(-c4cc(F)c5nn[nH]c5c4F)n3)s2)nc1 [Example 144] | 330 | 40 | – | – |
| Cc1nc(COCC(=O)N(C)C)sc1-c1cccc(-c2cc(F)c(O)c(F)c2F)n1 [Example 170] | 1100 | 880 | – | – |
| Cc1nc(CNC(=O)c2cccnn2)sc1-c1csc(-c2cc(F)c(O)c(F)c2F)n1 [Example 188] | 84 | 140 | – | – |
| Cc1nc(COc2ccccn2)sc1-c1csc(-c2cc(F)c3[nH]nnc3c2)n1 [Example 100] | 310 | 57 | – | – |
| COC(=O)NCc1nc(C)c(-c2csc(-c3ccc(-c4nnn[nH]4)c(O)c3)n2)s1 [Example 213] | 160 | 60 | – | – |
| Cc1nc(COc2ncccn2)sc1-c1cccc(-c2cc(F)c(O)c(F)c2F)n1 [Example 172] | 280 | 240 | – | – |
| Cc1nc(COc2ncccn2)sc1-c1cccc(-c2ccc(C#N)c(O)c2)n1 [Example 158] | 240 | 530 | – | – |
| Cc1ccnc(OCc2nc(C)c(-c3cccc(-c4cc(F)c5nn[nH]c5c4F)n3)s2)n1 [Example 130] | 15 | 10000 | – | – |
| Cc1nc(COc2ncccn2)sc1-c1csc(-c2cc(F)c(O)c(F)c2F)n1 [compound 10] | 130 | 310 | 310 | – |
| Cc1nc(CNC(=O)C(C)(C)C)sc1-c1csc(-c2cc(F)c(O)c(F)c2)n1 [Example 196] | 1600 | 4900 | – | – |
| Cc1nc(CNc2ncccn2)sc1-c1csc(-c2cc(F)c(O)c(F)c2F)n1 [Example 165] | 92 | 110 | – | – |
| COC(=O)NCc1nc(C)c(-c2csc(-c3ccc4[nH]nnc4c3F)n2)s1 [Example 166] | 110 | 170 | – | – |
| Cc1nc(CNc2cccnn2)sc1-c1cccc(-c2cc(F)c3nn[nH]c3c2F)n1 [Example 95] | 25 | 25 | – | – |
| Cc1nc(COc2ncccn2)sc1-c1cccc(-c2ccc(-c3noc(=O)[nH]3)cc2)n1 [compound 15] | 140 | 170 | 170 | – |
| Cc1nc(COc2ncccn2)sc1-c1csc(-c2cc(F)c(O)c(F)c2F)c1 [Example 154] | 110 | 49 | – | – |
| Cc1nc(COC(=O)N(C)C)sc1-c1cccc(-c2cc(F)c3nn[nH]c3c2F)n1 [Example 125] | 23 | 2700 | – | – |
| Cc1nc(CNc2ncccn2)sc1-c1csc(-c2cc(F)c3[nH]nnc3c2)n1 [Example 175] | 79 | 30 | – | – |
| Cc1nc(COCC(=O)O)sc1-c1csc(-c2cc(F)c(O)c(F)c2F)n1 [Example 99] | 4700 | 7800 | – | – |
| Cc1nc(CNc2ncccn2)sc1-c1cccc(-c2cc(F)c3nn[nH]c3c2)n1 [Example 155] | 44 | 40 | – | – |
| Cc1nc(CNC(=O)C(C)(C)C)sc1-c1csc(-c2cc3nn[nH]c3cc2F)n1 [Example 181] | 300 | 790 | – | – |

| Compound | IC50 (hBPGM; [2]) [nM] | EC50 [1, 3] [nM] | EC50 [1, 4] [nM] | IC50 (hBPGM; [5]) [nM] |
| --- | --- | --- | --- | --- |
| Cc1nc(CNC(=O)c2cccnn2)sc1-c1cccc(-c2cc(F)c(O)c(F)c2F)n1 [Example 164] | 680 | 550 | – | – |
| COC(=O)NCc1nc(C)c(-c2csc(-c3cc(O)c(C#N)cc3F)c2)s1 [Example 189] | 980 | 310 | – | – |
| COC(=O)NCc1nc(C)c(-c2csc(-c3ccc(O)c(F)c3)n2)s1 [Example 203] | 6100 | 3600 | – | – |
| Cc1nc(COc2ncccn2)sc1-c1cccc(-c2ccc3nn[nH]c3c2)n1 [compound 14] | – | – | 570 | 1010 |
| COC(=O)NCc1nc(C)c(-c2csc(-c3ccc(O)c(C#N)c3F)n2)s1 [Example 173] | 1500 | > 25000 | – | – |
| Cc1nc(COc2ccccn2)sc1-c1csc(-c2cc(F)c(O)c(F)c2F)n1 [compound 11] | 510 | 190 | 190 | 511 |
| Cc1nc(COc2ccccn2)sc1-c1csc(-c2cc(F)c(O)c(F)c2F)c1 [Example 102] | 620 | 45 | – | – |
| Cc1nc(COc2ncccn2)sc1-c1cccc(-c2ccc3nn[nH]c3c2)n1 [Example 131] | 510 | 570 | – | – |
| Cc1nc(COc2ncc(C(=O)O)cn2)sc1-c1cccc(-c2cc(F)c3nn[nH]c3c2F)n1 [Example 135] | 160 | 240 | – | – |
| CC(=O)NCc1nc(C)c(-c2csc(-c3cc(F)c(O)c(F)c3F)n2)s1 [Example 96] | 1600 | 1000 | – | – |
| COC(=O)NCc1nc(C)c(-c2csc(-c3ccc(O)c(F)c3F)n2)s1 [Example 190] | 4200 | 3300 | – | – |
| Cc1cnc(OCc2nc(C)c(-c3cccc(-c4cc(F)c5nn[nH]c5c4)n3)s2)nc1C [Example 136] | 200 | 70 | – | – |
| Cc1nc(COc2ncccn2)sc1-c1cccc(-c2cc(F)c3[nH]nnc3c2)n1 [Example 141] | 54 | 57 | – | – |
| COC(=O)NCc1nc(C)c(-c2csc(-c3ccc(C(=O)NS(C)(=O)=O)cc3)n2)s1 [Example 208] | 3100 | 16000 | – | – |
| Cc1nc(COC(C)C(=O)N(C)C)sc1-c1csc(-c2cc(F)c(O)c(F)c2F)n1 (stereo not shown) [Example 98] | 2200 | 380 | – | – |
| Cc1nc(COc2ncccn2)sc1-c1csc(-c2cc(F)c3[nH]nnc3c2)c1 [Example 145] | 250 | 30 | – | – |
| Cc1cnc(OCc2nc(C)c(-c3cccc(-c4cc(F)c5nn[nH]c5c4)n3)s2)nc1 [Example 152] | 40 | 30 | – | – |
| COC(=O)NCc1nc(C)c(-c2csc(-c3ccc(C(=O)NS(=O)(=O)c4ccccc4)cc3)n2)s1 [compound 13] | 170 | 32 | 55 | 169 |
| Cc1nc(CNc2ncccn2)sc1-c1cccc(-c2cc(F)c(O)c(F)c2F)n1 [Example 168] | 220 | 130 | – | – |
| Cc1nc(COc2ncccn2)sc1-c1cccc(-c2ccc3nnc(O)n3c2)n1 [Example 151] | 1500 | 20000 | – | – |
| COC(=O)NCc1nc(C)c(-c2csc(-c3cc(F)c4[nH]nnc4c3)n2)s1 [Example 214] | 180 | 96 | – | – |
| Cc1nc(CNC(=O)N2CC(O)C2)sc1-c1csc(-c2cc(F)c(O)c(F)c2F)n1 [Example 97] | 1800 | 6900 | – | – |
